Earlier results on one molecule are cited in patent publication US20060009471A1, “Amido compounds and their use as pharmaceuticals” (priority 2004, published 2006).

Each structure is given as a SMILES string.

This data set has as its target T1, 11βHSD1 in the eye (Homo sapiens, UniProt P28845).
T1 construct: host or cells: eye (non-pigmented epithelial cells) of healthy volunteers, in vivo
The following applies: healthy volunteers, after seven days of carbenoxolone treatment.

T1 sequence (P28845 whole entry): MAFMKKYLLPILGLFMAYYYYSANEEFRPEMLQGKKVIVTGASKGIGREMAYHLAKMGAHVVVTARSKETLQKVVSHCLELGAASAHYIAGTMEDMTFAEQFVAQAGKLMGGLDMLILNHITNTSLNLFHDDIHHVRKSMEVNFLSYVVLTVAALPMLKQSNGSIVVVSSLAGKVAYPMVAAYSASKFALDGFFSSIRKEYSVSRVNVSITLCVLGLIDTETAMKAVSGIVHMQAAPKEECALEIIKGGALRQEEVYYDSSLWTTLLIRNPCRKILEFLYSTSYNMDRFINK

Turning to `CC1(C)[C@@H](OC(=O)CCC(=O)O)CC[C@]2(C)[C@H]3C(=O)C=C4[C@@H]5C[C@@](C)(C(=O)O)CC[C@]5(C)CC[C@@]4(C)[C@]3(C)CC[C@@H]12` [carbenoxolone], the IOP reduced was 18%.
